{"source": "patent US10876003B2", "about": "“Class of stable heptamethine cyanine fluorophores and biomedical applications thereof” (priority 2014, dated 2020)", "key": {"[1]": {"test": "Maximum absorbance wavelength in pH 7.4 phosphate-buffered saline", "assay_type": "physicochemical", "conditions": "for λmax: 2 μM in 0.1 M PBS", "method": "Table 1 includes exemplary compounds according to formula II, in which n is 2, R^1 is —CH2—, m is 2, R^2 is methyl, R^14 to R^17 are methyl, and R^5, R^6, R^8, R^10, R^11 and R^13 are hydrogen. Other substituents are as indicated. The maximum absorbance wavelength (λmax) was measured in pH 7.4 phosphate-buffered saline.\nUnless stated otherwise, reactions were conducted in oven-dried glassware under an atmosphere of nitrogen or argon using anhydrous solvents (passed through activated alumina columns) All other commercially obtained reagents were used as received. […] Flash column chromatography was performed using normal phase or reverse phase on a CombiFlash® Rf 200i (Teledyne Isco Inc.). […] Data for ^1H NMR spectra are reported as follows: chemical shift (6 ppm), multiplicity, coupling constant (Hz), and integration. ^13C NMR spectra were recorded on Varian spectrometers (at 100 or 125 MHz). Data for ^13C NMR spectra are reported in terms of chemical shift. IR spectra were recorded on a JASCO FT/IR 4100 spectrometer and are reported in terms of frequency of absorption (cm^−1). High-resolution LC/MS analyses were conducted on a Thermo-Fisher LTQ-Orbitrap-XL hybrid mass spectrometer system with an Ion MAX API electrospray ion source in positive ion mode. Separations were carried out on a narrow-bore (50×2.1 mm), Zorbax Rapid-Resolution, reversed-phase C18 (3.5 μm) column with a flow rate of 250 μL/min with a 10 min, 2-90% gradient of MeCN/H2O containing 0.1% HCOOH. […] Fluorescence traces and quantum yield measurements were recorded on a PTI QuantaMaster steady-state spectrofluorimeter operated by FelixGX 4.0.3 software, with 10 nm excitation and emission slit widths, 0.1 s integration rate, and enabled emission correction."}, "[2]": {"test": "Quantum yields, molar absorption coefficients, absorbance and emission spectra", "assay_type": "physicochemical", "conditions": "for ε (M^−1cm^−1): Table 4 footnote: methanol, method b204: PBS, 25° C.; for λem (nm) / λmax (nm): methanol"}, "[3]": {"conditions": "methanol; James et al., Theranostics 2013; cited from earlier work"}, "[4]": {"assay_type": "physicochemical", "conditions": "buffer, pH 7.4", "method": "Solutions of commercially available IRDye 800 CW (a phenol-substituted heptamethine cyanine available from Li-Cor Biotechnology, Lincoln, Nebr.) and compound 13 (Glut-Cy-503), 10 μM, were prepared in pH 7.4 phosphate-buffered saline and exposed to physiologically relevant concentrations of glutathione (GSH, 1 mM) at room temperature. […] Upon analysis by LCMS, signals consistent with the glutathione adduct were observed concomitant with the disappearance of the phenol (IRDye 800 CW) (FIG. 7)."}}}
{"smiles": "CCCN1/C(=C/C=C2\\CCCC(/C=C/C3=[N+](CCC)c4ccccc4C3(C)C)=C2N(C)CCO)C(C)(C)c2ccccc21", "note": "[Compound 6]", "values": [{"measurement": "broad hypsochromic absorbance maximum", "setting": "[1]; solvent not given", "result": 687, "unit": "nm"}]}
{"smiles": "CCCN1/C(=C/C=C2\\CCCC(/C=C/C3=[N+](CCC)c4ccccc4C3(C)C)=C2OCCN(C)C(=O)OCc2ccccc2)C(C)(C)c2ccccc21", "note": "[Compound 8]", "values": [{"measurement": "λmax", "setting": "[1]; pH 7.4, with 20% DMSO (v/v)", "result": 763, "unit": "nm"}, {"measurement": "λex", "setting": "[2]", "result": 774, "unit": "nm"}, {"measurement": "ε (M^−1cm^−1)", "setting": "[2]", "result": "187,000 M^−1cm^−1"}, {"measurement": "Φf", "setting": "[2]; measured in methanol relative to ICG", "result": 0.22}, {"measurement": "λem (nm)", "setting": "[2]", "result": 797, "unit": "nm"}, {"measurement": "λmax (nm)", "setting": "[2]", "result": 774, "unit": "nm"}]}
{"smiles": "CCCN1/C(=C/C=C2\\CCCC(/C=C/C3=[N+](CCC)c4ccccc4C3(C)C)=C2OCCN(C)C(=O)OCC2c3ccccc3-c3ccccc32)C(C)(C)c2ccccc21", "note": "[Compound 9]", "values": [{"measurement": "λmax", "setting": "[1]; pH 7.4, with 20% DMSO (v/v)", "result": 765, "unit": "nm"}]}
{"smiles": "CCCN1/C(=C/C=C2\\CCCC(/C=C/C3=[N+](CCC)c4ccccc4C3(C)C)=C2OCCN(C)C(=O)CCCC(=O)O)C(C)(C)c2ccccc21", "note": "[Compound 10]", "values": [{"measurement": "λmax", "setting": "[1]; pH 7.4, with 0.1% DMSO (v/v)", "result": 760, "unit": "nm"}]}
{"smiles": "CC1(C)C(/C=C/C=C/C=C/C=C2\\N(CCCCS(=O)(=O)O)c3ccc4ccccc4c3C2(C)C)=[N+](CCCCS(=O)(=O)[O-])c2ccc3ccccc3c21", "note": "[ICG, indocyanine green, reference compound]", "values": [{"measurement": "Φf of standard", "setting": "[3]", "result": 0.078}, {"measurement": "ε (M^−1cm^−1)", "setting": "[2]", "result": "204,000 M^−1cm^−1"}, {"measurement": "λem (nm)", "setting": "[2]", "result": 822, "unit": "nm"}, {"measurement": "λmax (nm)", "setting": "[2]", "result": 785, "unit": "nm"}]}
{"smiles": "CC1(C)C(=CC=C2CCCC(C=CC3=[N+](CCCCS(=O)(=O)[O-])c4ccccc4C3(C)C)=C2Cl)N(CCCCS(=O)(=O)[O-])c2ccccc21.[Na+]", "note": "[IR783]", "values": [{"measurement": "Φf of standard", "setting": "[3]", "result": 0.084}]}
{"smiles": "CC1(C)C(=CC=C2CCCC(C=CC3=[N+](CCCCCC(=O)[O-])c4ccc(S(=O)(=O)[O-])cc4C3(C)C)=C2Oc2ccc(S(=O)(=O)[O-])cc2)N(CCCCS(=O)(=O)[O-])c2ccc(S(=O)(=O)[O-])cc21.[Na+].[Na+].[Na+].[Na+]", "note": "[IRDye 800 CW]", "values": [{"measurement": "t1/2 of degradation to the glutathione adduct", "setting": "[4]", "result": 50, "unit": "min"}]}
